According to patent publication US10624871B2, “Bismuth(III) compounds and methods thereof” (priority 2016, dated 2020):

Legend:
[1] = test system: E. coli (NDM-1+); assay: Murine peritonitis infection model; format: in vivo, BALB/c mice; conditions: MER (5 mg kg^−1) co-administered with CBS (20 mg kg^−1), i.p., day 4 post infection
Description: FIG. 15 is a survival curve showing efficacies in a murine peritonitis infection model. BALB/c mice were infected by a lethal dose of E. coli clinical isolate (NDM-1) via i.p. injection and treated with one dose and 4 h post infection, followed by twice-daily treatment via i.p. injection. Five groups of mice were treated with MER (5 mg kg^−1), CBS (20 mg kg^−1), the combination of MER (5 mg kg^−1) and CBS (20 mg kg^−1), CBS (20 mg kg^−1, in the absence of bacteria) and PBS, respectively. P<0.001, Mantel-Cox test.
Briefly, an overnight culture of E. coli (NDM-1^+) was performed 1:250 dilution in 50 mL LB broth and re-grew to about OD of 0.3 in a 250-mL flask after 2.5 hrs shaking at 37° C., 250 rpm. The resulting bacterial pellets were collected and washed by PBS three times for further use. For bacterial infection, mice (female BALB/c strain, 6-8 weeks of age, 18-22 g of weight) were induced intraperitoneally (i.p.) with a dose of 10^5 CFU bacteria in a 400 μL aliquot of PBS supplemented with 2% mucin. 4 groups of mice were i.p. administered 4 hrs post-infection with a 100 μL aliquot of PBS, MER, CBS and a combination of MER and CBS, respectively. Body weights and mice survival were monitored for endpoint until day 4 post infection.

[2] = target: T1, NDM-1 (Klebsiella pneumoniae, UniProt C7C422); assay: IC50 enzyme inhibition assay, MER hydrolysis; format: biochemical; conditions: Zn2-NDM-1 50 nM, 1 h preincubation at 25° C., 100 μM MER
T1 sequence (C7C422 whole entry, looked up): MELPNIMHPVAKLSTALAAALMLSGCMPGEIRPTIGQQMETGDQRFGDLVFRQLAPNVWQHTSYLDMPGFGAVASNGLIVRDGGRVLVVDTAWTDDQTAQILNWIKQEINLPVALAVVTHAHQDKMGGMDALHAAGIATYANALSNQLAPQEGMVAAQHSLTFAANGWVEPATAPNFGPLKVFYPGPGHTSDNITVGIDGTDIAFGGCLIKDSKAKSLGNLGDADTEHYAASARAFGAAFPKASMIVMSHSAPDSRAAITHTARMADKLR
Description: (§1) […]. The initial rate were extracted and calculated from each reaction curves.

[3] = target: VIM-2 (Escherichia coli, UniProt Q5U7L7); assay: IC50 enzyme inhibition assay, MER hydrolysis; format: biochemical; conditions: Zn2-VIM-2, 1 h preincubation at 25° C., 100 μM MER
Description: as §1

[4] = test system: E. coli (NDM-1−); assay: Checkerboard MIC analysis, NDM-1-null strain; format: cell-based; conditions: NDM-1-null E. coli strain
Description: FIGS. 10 (a)-(b) show a heat map of checkerboard MIC analysis over MER and CBS against clinical isolates of (a) E. coli (NDM-1^+) and (b) E. coli (NDM-1^−).
MIC values of either antibiotics or Bi(III) compounds were determined firstly by standard broth micro-dilution method (Clinical and Laboratory Standards Institute (CLSI) M100-S20, 2010). Briefly, bacteria cells were cultured in LB broth overnight at 37° C. at 250 rpm and the optical density was measured at 600 nm (OD600) using a microtiter plate reader. The bacteria density was adjusted to about 1×10^6 CFU mL^−1 and checked by CFU counting on agar plates afterwards. Tested compounds were added triplicately into individual wells of flat-bottomed 96-well plates and performed two-fold serial dilution, followed by addition of prepared bacterial inoculum. […] The MIC was determined as the lowest concentration of compounds that could inhibit the growth of microorganism by both visual reading and OD600 measurement. […]
For the test of drug combination, antibiotics and Bi(III) compounds were co-administrated at concentrations up to 8 times higher than the MIC of the compounds tested alone. […] The FICIs were determined based on the following equation: FICI=FICA+FICB=CA/MICA+CB/MICB where MICA and MICB are the MIC values of compound A and B when functioning alone, and CA and CB are the concentrations of compound A and B at the effective combinations. […]

[5] = target: T1, NDM-1; assay: Zn(II) supplementation assay; format: biochemical; conditions: Bi-NDM-1 from apo-NDM-1 and CBS; ZnSO4 up to 2 molar equivalents; apo-NDM-1 + 2 eq Zn = 1
Description: To investigate whether enzyme inhibition can be reversed, enzyme activities of apo-NDM-1 and Bi-NDM-1 were compared with the supplementation of Zn(II). Bi-NDM-1 (50 nM) was prepared by pre-incubation of apo-NDM-1 with CBS for 2 h at 25° C. and the bound Bi was verified using ICP-MS. The above protein solutions were mixed with ZnSO4 at concentration up to 2 molar equivalents to NDM-1 and 100 μM MER. The change in absorbance at 300 nm was monitored in a 1 cm quartz cuvette using Varian Cary® 50 UV-visible spectrophotometer at 25° C. for reaction rate calculations. Reaction rate of apo-NDM-1 with addition of 2 molar equivalents of ZnSO4 was normalized to be 1. […]. […] To confirm this, the metal contents of both Zn(II) and Bi(III) were monitored by inductively-coupled plasma mass spectrometry (ICP-MS) as described below.

[6] = test system: E. coli (VIM-2+); assay: Microdilution MIC and MBC assay, FICI; format: cell-based; conditions: Bi(III) compound at 32 μg mL−1, E. coli (VIM-2+)
[7] = test system: Rosetta (DE3) (NDM-1+) bacterial cells; assay: Growth with other β-lactam antibiotics in presence of Bi(III) compounds; format: cell-based, E. coli; conditions: CEF 32 μg mL^−1; CBS 32 or Bi-NAC 16 μg mL^−1
Description: Note that evident restoration of activities of antibiotics was observed. The concentrations used in this test represent are: CBS […], Bi-NAC 16 μg mL^−1, all the antibiotics 32 μg mL^−1. Abbreviation: AMOX: amoxicillin; AMP: ampicillin; NAF: nafcillin; CEF: cefdinir.

O=C([O-])CC([O-])(CC(=O)[O-])C(=O)[O-].O=C([O-])CC([O-])(CC(=O)[O-])C(=O)[O-].[Bi+3].[Bi+3].[K+] [Complex 10, colloidal bismuth subcitrate]
survival rate at the endpoint of experiment [1]: 50%
IC50 [2]: 5.83 ± 0.53 µM
IC50 [3]: 44.5 ± 3.94 µM
synergy of MER and CBS in checkerboard MIC [4]: no inhibition was observed
enzyme activity restored upon supplementation of Zn(II) to Bi-NDM-1 [5]: 25%
MBC of MER with Bi(III) compound [6]: 1 µg/mL
MIC of MER with Bi(III) compound [6]: 0.5 µg/mL
reduction of growth rate of bacterial cells, with CEF [7]: 76%
